Laboratory results published in paper PMC10284601, “Evolution of an extreme hemoglobin phenotype contributed to the sub-Arctic specialization of extinct Steller’s sea cows” (eLife, 2023).

Experiments:
Experiment in all cases: shift of O2 affinity (P50), thin-film O2 equilibrium curves
Details in all cases: allosteric effector of O2 binding; 0.5 mM DPG (twofold molar excess over tetramer) vs stripped Hb; no Cl-; 0.1 M HEPES, pH 7.2, 37 °C
[1] = molecular target: T1, Steller's sea cow Hb (H. gigas HbA; α2β/δ2) (Hydrodamalis gigas, UniProt A0A481WR13, N83K)
T1 construct: gene HBB; recombinant tetramer, E. coli JM109 (DE3) with co-expressed methionine aminopeptidase, codon-optimised, ion exchange purified; natural β/δ82Asn; with Hemoglobin subunit alpha
T1 sequence (A0A481WNT7 entry or part of it, stated change not applied): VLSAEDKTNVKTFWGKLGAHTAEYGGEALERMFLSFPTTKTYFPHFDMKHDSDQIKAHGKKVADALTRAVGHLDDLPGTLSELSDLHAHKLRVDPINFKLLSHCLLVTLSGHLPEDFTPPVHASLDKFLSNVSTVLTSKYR
T1 sequence (A0A481WR13 entry or part of it N83K): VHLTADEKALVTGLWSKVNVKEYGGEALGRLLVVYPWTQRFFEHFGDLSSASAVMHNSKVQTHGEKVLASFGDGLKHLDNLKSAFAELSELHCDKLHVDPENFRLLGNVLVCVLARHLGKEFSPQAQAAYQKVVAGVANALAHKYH

[2] = molecular target: T2, Steller's sea cow Hb (H. gigas HbA; α2β/δ2) (Hydrodamalis gigas, UniProt A0A481WR13)
T2 construct: gene HBB; recombinant tetramer, E. coli JM109 (DE3) with co-expressed methionine aminopeptidase, codon-optimised, ion exchange purified; natural β/δ82Asn; with Hemoglobin subunit alpha
T2 sequence (A0A481WR13 entry or part of it): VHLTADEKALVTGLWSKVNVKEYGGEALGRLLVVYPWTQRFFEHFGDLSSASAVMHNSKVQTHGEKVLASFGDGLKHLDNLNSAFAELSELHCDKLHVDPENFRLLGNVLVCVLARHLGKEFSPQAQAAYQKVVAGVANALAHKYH
T2 sequence (A0A481WNT7 entry or part of it, further chain): as the sequence (A0A481WNT7 entry or part of it, stated change not applied) above

dugong Hb (HbA; α2β/δ2) = molecular target: T3, dugong Hb (HbA; α2β/δ2) (Dugong dugon, UniProt A0A481WQB0)
T3 construct: gene HBB; recombinant tetramer, E. coli JM109 (DE3) with co-expressed methionine aminopeptidase, codon-optimised, ion exchange purified; with Hemoglobin subunit alpha
T3 sequence (A0A481WNF4 entry or part of it): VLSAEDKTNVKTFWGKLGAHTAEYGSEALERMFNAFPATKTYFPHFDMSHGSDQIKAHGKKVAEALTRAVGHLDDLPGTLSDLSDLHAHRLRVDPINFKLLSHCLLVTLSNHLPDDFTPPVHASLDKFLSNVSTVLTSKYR
T3 sequence (A0A481WQB0 entry or part of it): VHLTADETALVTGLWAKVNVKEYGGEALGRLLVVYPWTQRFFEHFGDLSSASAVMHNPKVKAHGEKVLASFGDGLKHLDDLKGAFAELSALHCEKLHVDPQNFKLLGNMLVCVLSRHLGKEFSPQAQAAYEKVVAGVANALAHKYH

ΔlogP50(DPG-stripped) [2]: 0.02 log units (P50 in mm Hg)
ΔlogP50(DPG-stripped) (dugong Hb (HbA; α2β/δ2)): 0.30 log units (P50 in mm Hg)
Compound: O=C(O)[C@@H](COP(=O)(O)O)OP(=O)(O)O [2,3-diphosphoglycerate]
ΔlogP50(DPG-stripped) [1]: reversion to the ancestral state restores the DPG effect to the same level
